Test results from patent US20250304576A1 (Cancer Research Technology Limited, priority 2022, published 2025).
pIC50: −log10 of the molar value.

Experiments:
MiaPaca-2 cells = assay: Cell viability, alamarBlue assay, MiaPaca-2 cells; format: cell-based; settings: treatment for 48 hours
Description: (§1) PC3, PC3M, LNCaP Al, cells were grown in RPMI 1640 media and PANC1 and MiaPac-2 cells were grown in Dulbecco's Modified Eagle's Media (DMEM) which was supplemented with 10% (v/v) Foetal Calf Serum (FCS) (Charcoal-stripped for LNCaP Als), L-glutamine ([…]) and penicillin/streptomycin (250 units/ml; 100 μg/ml). All cells were incubated in a humidified atmosphere at 37° C. and 5% (v/v) CO2. Cells were cultured as a monolayer in 10 ml media in […] vented flasks and grown until subculture was required.
(§2) Cell viability determination: Cells (1000 cells/100 μl) were plated into 96 well plates and incubated for 24 hours at 37° C. and 5% (v/v) CO2 before being treated with SU1433. After incubation with SU1433 for 48 h, cell viability was measured using the alamarBlue® Assay (Thermofisher, UK). The media was removed and replaced with a 1:10 media to alamar blue solution. After a 1 h incubation at 37° C. and 5% CO2, the fluorescence was measured at 530-560 nm excitation wavelength and 590 nm emission wavelength in a fluorescence plate reader. All treatment were measured in duplicate wells and repeated at least 3 times. The results represent the fractional survival of untreated controls±SD.

PC3M xenografts = assay: In vivo assessment in nude mice bearing PC3M xenografts; settings: once daily i.p. dose of 50 mg/kg, over 21 days
Description: Xenografts were established in nude mice by subcutaneous injection of 5×10^6 PC3M-Luc-C6 cells. After 8 days, mice bearing tumours of approximately 60 mm^3 in volume were randomised into 3 treatment groups of 8 mice in each. One group of mice received intraperitoneal injection (i.p.) of 50 mg/kg SU1433 once daily dissolved in a vehicle of 5% (v/v) DMSO, 5% (v/v) solutol HS15 and 15% (w/v) hydroxypropyl-p-cyclodextrin in water for injection (90%) for a total of 21 days. Another group received once daily i.p. injection of the vehicle (100 μL) alone whilst the last group received no treatment. To monitor potential toxicity, body weight was measured daily, and experimental animals were evaluated for signs of distress using standard guidelines. Mice whose xenografts reached 1,900 mm^3 were euthanised. Subcutaneous tumours were measured with calipers immediately before treatment and every 2 or 3 days thereafter. On the assumption of ellipsoidal geometry, diameter measurements were converted to an approximate volume by multiplying half the longest diameter by the square of the mean of the 2 shorter diameters. For every animal, relative tumour volume (volume at any time point divided by volume immediately before treatment) was plotted against time, and the area under the time-volume curves was determined by trapezoidal approximation. […]

PANC1 cells = assay: Cell viability, alamarBlue assay, PANC1 cells; format: cell-based; settings: treatment for 48 hours
Description: as §1, §2

CHUK (IKK alpha) = molecular target: T1, CHUK (IKK alpha) (Homo sapiens, UniProt O15111); assay: Adapta IKKα assay (TR-FRET ADP formation, Life Technologies); format: biochemical; settings: Adapta assay
T1 construct: purchased Life Technologies (assay performed by the vendor)
T1 sequence (O15111 1-745): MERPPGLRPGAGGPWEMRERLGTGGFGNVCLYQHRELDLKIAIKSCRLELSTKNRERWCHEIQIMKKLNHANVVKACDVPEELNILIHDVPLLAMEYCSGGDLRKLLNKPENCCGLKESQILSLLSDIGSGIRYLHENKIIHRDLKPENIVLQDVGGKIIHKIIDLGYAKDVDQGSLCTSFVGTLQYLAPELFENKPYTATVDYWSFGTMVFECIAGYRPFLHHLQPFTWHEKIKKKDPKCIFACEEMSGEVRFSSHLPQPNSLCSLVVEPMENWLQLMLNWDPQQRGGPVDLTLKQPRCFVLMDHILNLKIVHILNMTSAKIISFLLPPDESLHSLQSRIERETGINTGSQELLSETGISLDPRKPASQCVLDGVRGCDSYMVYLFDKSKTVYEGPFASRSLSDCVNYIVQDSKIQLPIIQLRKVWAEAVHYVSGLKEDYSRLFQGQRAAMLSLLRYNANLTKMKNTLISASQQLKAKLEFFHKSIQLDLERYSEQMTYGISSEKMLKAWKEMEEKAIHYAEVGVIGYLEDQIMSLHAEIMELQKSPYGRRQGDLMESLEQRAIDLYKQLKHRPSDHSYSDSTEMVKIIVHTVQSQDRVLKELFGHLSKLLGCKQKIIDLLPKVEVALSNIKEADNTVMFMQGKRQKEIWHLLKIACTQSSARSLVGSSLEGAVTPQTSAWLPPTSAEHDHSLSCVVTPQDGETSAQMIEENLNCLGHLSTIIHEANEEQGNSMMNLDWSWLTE
Description: IKKα and IKKβ inhibitory activity was determined using three different assays: a dissociation enhanced ligand fluorescent immunoassay (DELFIA) based on the protocol of HTScan™ IKKβ Kinase Assay (Cell Signaling Technology, USA); an Adapta IKKα assay (performed by Life Technologies); a Z′-LYTE™ IKKβ assay (performed by Life Technologies).
The reaction was performed in low-volume white 384-well plates (Corning model 4512).
The test compounds were screened in 1% DMSO (final) in the well. For 10 point titrations, 3-fold serial dilutions were conducted from the starting concentration of 50 mM.
The 2× CHUK (IKK alpha) kinase was prepared in 50 mM HEPES pH 7.5, 0.01% BRIJ-35, 10 mM MgCl2 and 1 mM EGTA. The final 10 μL kinase mixture consisted of 50-250 ng CHUK (IKK alpha) in 32.5 mM HEPES pH 7.5, 0.005% BRIJ-35, 5 mM MgCl2 and 0.5 mM EGTA. No substrate was required, as the assay measures the ability of a compound to inhibit the kinase's intrinsic ATPase activity.
5 μL of 2× Kinase mixture was incubated with 2.5 μL of ATP solution diluted to a 4×working concentration in water, in the presence of 100 nL of 100× test compound in 100% DMSO and 2.4 μL of 30 mM HEPES buffer.
After 30-second plate shake and 1-minute centrifuge at 1000×g, the resulting kinase reaction was allowed to incubate for 1 hour at room temperature before 5 μL of Detection Mix was added.
The Detection Mix, previously prepared in TR-FRET Dilution Buffer, consisted of EDTA (30 mM), Eu-anti-ADP antibody (6 nM) and an Alexa Fluor™ 647 labelled ADP tracer. The Detection Mix contained the EC60 concentration of tracer for 5-150 μM ATP.
After 30-second plate shake and 1-minute centrifuge at 1000×g, the Detection Mix was allowed to equilibrate at room temperature for 1 hour. Then the plate was read using a fluorescence plate reader configured for Adapta™ TR-FRET and the data analysed.
ADP formation was determined by calculating the emission ratio from the assay well. Therefore, the emission ratio was calculated by dividing the intensity of the tracer (acceptor) emission by the intensity of the Eu (donor) emission at 615 nm as shown in the equation below.
The IKKα and IKKb figures quoted in italicised form are from the Adapta assay described above.

## CC(C)(C)C#Cc1cc(-c2ccnc(N)c2)cc2c(N)n[nH]c12 [Example 137, 5-(2-Aminopyridin-4-yl)-7-(3,3-dimethylbut-1-yn-1-yl)-1H-indazol-3-amine]
MiaPaca-2 cells
  viability of MiaPaca-2 cells: reduced the viability
PC3M xenografts
  inhibition of tumour growth: approximately 60%
PANC1 cells
  viability of PANC1 cells: reduced the viability
CHUK (IKK alpha)
  pIC50: 7.96
